{"source": "PubChem BioAssay AID588356", "about": "(Sanford-Burnham Center for Chemical Genomics, 2011)", "biological_target": "Hexokinase-1 (Homo sapiens) (UniProt P19367)", "sequence (P19367 whole entry, looked up)": "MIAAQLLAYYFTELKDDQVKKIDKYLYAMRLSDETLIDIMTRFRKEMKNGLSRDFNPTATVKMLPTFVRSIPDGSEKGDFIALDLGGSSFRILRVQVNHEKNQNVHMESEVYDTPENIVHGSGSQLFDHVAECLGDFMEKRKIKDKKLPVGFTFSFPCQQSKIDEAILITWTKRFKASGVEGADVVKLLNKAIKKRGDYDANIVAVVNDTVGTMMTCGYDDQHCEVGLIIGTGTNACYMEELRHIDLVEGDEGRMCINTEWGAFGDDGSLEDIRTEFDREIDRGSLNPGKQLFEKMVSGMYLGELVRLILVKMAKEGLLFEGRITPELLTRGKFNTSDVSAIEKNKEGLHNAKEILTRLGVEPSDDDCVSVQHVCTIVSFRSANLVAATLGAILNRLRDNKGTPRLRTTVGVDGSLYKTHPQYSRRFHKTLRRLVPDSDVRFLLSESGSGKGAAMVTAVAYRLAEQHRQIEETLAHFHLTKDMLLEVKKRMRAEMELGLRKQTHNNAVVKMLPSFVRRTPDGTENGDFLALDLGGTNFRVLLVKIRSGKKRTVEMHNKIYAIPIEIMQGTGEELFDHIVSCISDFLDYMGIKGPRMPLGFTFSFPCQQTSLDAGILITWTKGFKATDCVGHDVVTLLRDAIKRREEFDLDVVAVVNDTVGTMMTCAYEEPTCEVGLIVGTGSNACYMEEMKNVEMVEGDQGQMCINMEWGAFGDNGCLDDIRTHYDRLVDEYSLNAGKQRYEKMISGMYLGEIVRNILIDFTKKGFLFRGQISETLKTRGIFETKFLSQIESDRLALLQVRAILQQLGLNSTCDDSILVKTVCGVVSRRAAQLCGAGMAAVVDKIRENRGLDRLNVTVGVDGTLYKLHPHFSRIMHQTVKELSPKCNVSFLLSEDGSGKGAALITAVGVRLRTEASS", "experiment": "hexokinase 1 activity inhibitors, potency – biochemical, set 2, resazurin fluorescence coupled readout, selectivity assay for HKDC1 inhibitor project, SAR follow-up (AID 588356)", "settings": "HK1 enzyme, G6PDH/diaphorase resazurin fluorescence", "note": "Activity calls are given as the source filed them.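 The calls were made as follows: active = mean IC50 below 20 µM; inactive = the rest.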"}
{"smiles": "COc1cc2c(cc1OC)-c1cc(N3CCc4ccccc4C3)nc(=O)n1CC2", "values": [{"measurement": "IC50", "value": "inactive"}]}
